Results as given in publication PMC4032254, “Targeting of the MYCN Protein with Small Molecule c-MYC Inhibitors” (PLoS ONE, 2014).

Tests used:
[1] = molecular target: T1, MYCN/MAX interaction (Homo sapiens, UniProt P04198); assay: Proximity ligation assay (PLA) for MYCN/MAX interaction in SMS-KCN69n cells; type: cell-based; conditions: for effect on MYCN/MAX interaction (PLA): 6 hours treatment, compared to DMSO
T1 construct: endogenous in cells; host or cells: SMS-KCN69n (human MYCN-amplified neuroblastoma)
T1 sequence (P04198 1-464): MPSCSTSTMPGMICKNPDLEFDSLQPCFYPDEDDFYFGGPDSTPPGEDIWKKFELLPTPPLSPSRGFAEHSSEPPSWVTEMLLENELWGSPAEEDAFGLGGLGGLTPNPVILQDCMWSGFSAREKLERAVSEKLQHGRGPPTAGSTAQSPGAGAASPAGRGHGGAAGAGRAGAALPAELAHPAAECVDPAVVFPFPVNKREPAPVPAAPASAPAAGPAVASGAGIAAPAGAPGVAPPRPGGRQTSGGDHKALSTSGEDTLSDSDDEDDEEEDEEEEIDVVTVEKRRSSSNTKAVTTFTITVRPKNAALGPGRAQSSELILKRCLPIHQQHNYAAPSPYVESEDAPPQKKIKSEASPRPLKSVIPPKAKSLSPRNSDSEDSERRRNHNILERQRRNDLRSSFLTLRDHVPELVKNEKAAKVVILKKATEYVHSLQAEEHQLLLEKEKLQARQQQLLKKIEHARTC
From the text: To investigate if the other small molecules also have an effect on MYCN/MAX dimerization we performed a proximity ligation assay (PLA) using MYCN-amplified SMS-KCN69n NB cells. […] No signal was detected in any of the experimental negative controls (Figure S4).
Figure 3 Reduction of MYCN/MAX interaction in NB cells after treatment with small molecules. A) Proximity ligation assay (PLA) for MYCN/MAX interaction after treatment of SMS-KCN69n cells with the different small molecules at the indicated concentrations for 6 hours. […] DNA is stained with DAPI. Scale bar: […]. The pictures are representative from three independent experiments. B) Quantification of the PLA signals per cell after treatment with the different compounds. Error bars indicate standard error of the mean.
40×10^3 SMS-KCN69n cells were seeded on collagen coated coverslips and grown for 24 hours and treated for 6 hours the next day. After 6 hours the cells were washed in PBS and treated as previously described. The PLA assay was performed after manufacturer's instructions with the Duolink kit (Olink, Uppsala, Sweden). The cells were incubated with primary antibody against MYCN (NCMII100, St Cruz Bio) 1∶500 and Max (C-17, St Cruz Bio) 1∶500 for 1 hour in a humidity chamber at 37°C, which were diluted in antibody diluent provided by the manufacturer. MYCN (1∶500) and FAS (A-20, St Cruz Bio) 1∶500 as well as MAX (1∶500) and GFP (C-2, St Cruz Bio) 1∶500 antibodies were used in combination in order to test for any unspecific binding of the secondary antibodies or unspecific signals. […]
The confocal images of the cells were acquired at 63× magnification using a motorized axiovert fluorescence microscope 200 M LCI (Zeiss GmBH, Göttingen, Germany) including a CSU10 Yokogawa head; a multilens/multipinhole array aperture (Yokogawa, Japan), an ORCA ER cold CCD camera; detector array 1344×1024px (Hammamatsu, Japan) and two continuous wave diode-pumped solid-state (DPSS) lasers for fluorescence excitation (Cobolt, Sweden); Cobolt Calypso 491 nm DPSS (excitation of green PLA fluorophore) and Cobolt Jive 561 nm DPSS (excitation of Alexa Fluor 568). […] A total amount of at least 120 cells were analyzed for all compounds. The PLA signals were analyzed using the open source image analysis program Image J (NIH, Bethseda, USA) and the amount of PLA signal per cell was calculated. Two persons analyzed the images independently in a blind fashion.
In order to quantify the PLA signal from the total z-depth of each cell confocal z-stacks was projected in z and identically processed regarding background subtraction. The PLA signal was then quantified blindly and automatically using a find maxima-based algorithm in ImageJ (plugin routine developed by Dr. E. Flaberg and Professor L. Szekely, KI and available upon request). […]

[2] = molecular target: T2, bHLHZip domain of human c-MYC (353–437) (Homo sapiens, UniProt P01106); assay: Surface plasmon resonance binding to bHLHZip of c-MYC; conditions: SPR, 25°C, steady state, mean ± SD
T2 construct: N-terminally His-tagged bHLHZip c-MYC (353–437) and bHLHZip MYCN (380–464) proteins were over-expressed in E. coli BL21 (DE3); made in house; host or cells: E. coli BL21 (DE3)
Description: (§1) For all SPR binding measurements the compounds were injected at increasing concentrations.
(§2) In order to determine the affinity of the compounds to c-MYC and MYCN, the response for each small molecule was plotted against the analyte (compound) concentration. The KD was defined as the concentration of analyte at 50% of the experimental maximal Response (Rmax). Approximate KD-values could be determined for all compounds except for #764. […] In summary, all active c-MYC inhibitors tested were also found to bind directly to MYCN.
N-terminally His-tagged bHLHZip c-MYC (353–437) and bHLHZip MYCN (380–464) proteins were over-expressed in E. coli BL21 (DE3) bacteria (Stratagene) at 37°C in LB media with kanamycin. Cultures were induced with Isopropyl β-D-1-thiogalactopyranoside (0,1 mg/ml) at an OD of 0.6 and harvested after 4 hours. […] Protein concentrations were determined by SDS-page comparing purified proteins to a standard curve of BSA loaded on the gel.
(§3) Surface Plasmon Resonance (SPR) experiments were performed using a Biacore T200 (GE Healthcare) instrument at 25°C. […] The obtained data was analyzed by the Biacore T200 Evaluation Software 2.0 (GE Healthcare). […]

[3] = molecular target: T3, bHLHZip domain of human MYCN (380–464) (Homo sapiens, UniProt P04198); assay: Surface plasmon resonance binding to bHLHZip of MYCN; conditions: SPR, 25°C, steady state, mean ± SD
T3 construct: N-terminally His-tagged bHLHZip c-MYC (353–437) and bHLHZip MYCN (380–464) proteins were over-expressed in E. coli BL21 (DE3); made in house; host or cells: E. coli BL21 (DE3)
Description: as §1, §2
N-terminally His-tagged bHLHZip c-MYC (353–437) and bHLHZip MYCN (380–464) proteins were over-expressed in E. coli BL21 (DE3) bacteria (Stratagene) at 37°C in LB media with kanamycin. Cultures were induced with Isopropyl β-D-1-thiogalactopyranoside (0,1 mg/ml) at an OD of 0.6 and harvested after 4 hours. After sonication of the proteins in 50 mM NaH2PO4, 100 mM NaCl and 10 mM Tris-HCl (pH = 8,0) for 6×30 seconds, the pellet was resuspended in 100 mM NaH2PO4, 10 mM Tris-HCl, 10 mM imidazole and 8 M urea (pH = 8,0) prior to additional sonication for 6×30 seconds. The proteins were then loaded onto a Ni-Sepahrose High Performance His-Trap column (GE Healthcare), washed with ten column volumes of 100 mM NaH2PO4, 10 mM Tris-HCl, 40 mM imidazole and 8 M urea (pH = 8,0) and finally eluted with two column volumes 100 mM NaH2PO4, 10 mM Tris-HCl, 500 mM imidazole and 8 M urea (pH = 8,0). Fractions without visible higher molecular mass contaminations, as judged by SDS-page, were pooled and refolded by dialysis in 50 mM NaH2PO4, 100 mM NaCl, 10 mM Tris-HCl (pH = 8,0), 5 mM EDTA, 2 mM DTT and decreasing concentrations of urea (6 M, 4 M, 2 M and 0 M). […] Protein concentrations were determined by SDS-page comparing purified proteins to a standard curve of BSA loaded on the gel.
as §3

[4] = test system: Kelly cells; assay: Crystal violet growth inhibition assay in Kelly cells; type: cell-based, human; conditions: 48 h treatment
From the text: Error bars indicate standard deviation. […] Error bars indicate standard deviation.

[5] = test system: TH-MYCN transgenic mice; set-up: method as in PMID 23733953; conditions: cited from earlier work
[6] = test system: Tet21N cells; assay: Apoptosis in Tet21N cells with doxycycline regulated MYCN expression; type: cell-based, human; conditions: 48 hour treatment
From the text: GAPDH was used as loading control. […] Error bars indicate standard error. (TIF) Click here for additional data file.

[7] = test system: MYCN protein levels; assay: Western blot of MYCN protein levels in SK-N-BE(2) cells; type: cell-based, human; conditions: 48 hours
Description: In order to determine the effect of the other compounds analyzed in this study on the MYCN protein levels, SK-N-BE(2) NB cells were treated with as a high concentration of each compound as possible without resulting in excessive cell death. […] Membranes were probed with antibodies recognizing MYCN and GAPDH. The blots are representative from three independent experiments. Whole cell extracts were prepared and lysed using RIPA-buffer. Western blot analysis was performed as previously described. In brief, membranes were probed with a mouse anti-MYCN antibody (B8.4.B, St Cruz Bio), MAX antibody (C-2, St Cruz Bio) and an HRP-conjugated anti-mouse antibody (DAKO) was used as secondary antibody. The membranes were developed using enhanced chemiluminescence substrate (ECL, Amersham).

[8] = test system: xenograft models of prostate cancer; conditions: cited from earlier work
[9] = test system: NB xenografts; set-up: method as in PMID 23733953; conditions: cited from earlier work
[10] = test system: SK-N-BE(2) cells; assay: Oil Red O staining of lipids; type: cell-based, human; conditions: sub-lethal concentrations, 3 days
Description: To explore the effect on lipid accumulation of the small molecules studied here cells were treated with sub-lethal concentrations of the compounds and stained with Oil Red O in order to detect lipids.
SK-N-BE(2) cells grown on cover slips were fixed in 4% PFA, washed in PBS and then in 60% isopropanol before staining with filtered Oil Red O solution (2 mg/ml) in 60% isopropanol. Cells were washed briefly in distilled water and mounted onto glass slides using water-soluble mounting medium (Aqua Pertex, Histolab products AB). For visualization, bright field images were captured at 40X magnification using an Axiovert 40 CFL inverted fluorescence microscope (Zeiss) and Axiovision Rel. 4.8 software.

[11] = test system: Burkitt's lymphoma cell line xenograft; set-up: method as in PMID 20801893; conditions: cited from earlier work
[12] = test system: SK-N-BE(2) cells; assay: Neuronal differentiation of NB cells (neurite outgrowth); type: cell-based, human; conditions: sub-lethal concentrations, 14-15 days
Description: SK-N-BE(2) cells were grown for 15 days in 6 well-plates and treated twice per week with DMSO or compound, with and without NGF. Differentiation was assessed based on number and length of neuronal outgrowths using a phase contrast microscope (Axiovert 40 CFL, Zeiss) and the Axiovision Rel. 4.8 software.
Phase contrast micrographs show representative pictures from one out of 3 to 5 independent experiments.

[13] = Solubility in aqueous buffers (SPR running buffer); type: physicochemical; conditions: could not be analyzed at concentrations above 50 µM
Description: as §1

[14] = test system: Kelly cells; assay: Apoptosis, propidium iodide sub G1 DNA content, Kelly; type: cell-based, human
Description: (§4) Figure 5 Growth inhibition and apoptosis induction in MYCN amplified cells. (A) The amount of viable of cells was determined using crystal violet assay following 48 hours treatment of Kelly cells with increasing concentration of the indicated compound. Data are shown as percent of control (DMSO) treated cells and represent the mean of three independent experiments. Error bars indicate standard deviation. (B) Pearson's correlation between the IC50 values in the growth inhibition assay (A, Table 2) and the KD values for binding to MYCN (Table 1). (C–D) Quantification of apoptosis by propidium iodide staining for sub G1 DNA content of SK-N-BE(2) (C) and Kelly (D) cells. Data represent the means of at least three independent experiments. Error bars indicate standard deviation. We next investigated the level of apoptosis induction in response to treatment with the molecules using two different MNA NB cell lines (Figure 5C, D). […] To verify the MYCN specificity in apoptosis induction, we next used Tet21N NB cells with doxycycline regulated MYCN expression. […] Small molecule-induced apoptosis was scored by quantifying the sub-G0/G1 fraction of the cell cycle. […] Cells were stained with propidium iodide solution (5 µg/ml propidium iodide and 25 µg/ml RNase A in PBS) for 30 min at 37°C and analyzed in a FACScan flow cytometer (Becton Dickinson). […]

[15] = test system: SK-N-BE(2) cells; assay: Apoptosis, propidium iodide sub G1 DNA content, SK-N-BE(2); type: cell-based, human
Description: as §4

T2 sequence (P01106 368-452): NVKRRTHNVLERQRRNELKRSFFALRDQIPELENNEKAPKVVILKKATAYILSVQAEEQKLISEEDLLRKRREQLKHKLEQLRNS

Row | SMILES | effect on MYCN/MAX interaction (PLA) at 112.5 µM ([1]; 112.5 µM) | effect on MYCN/MAX interaction (PLA) [1] | Kd [2] [µM] | Kd [3] [µM] | IC50 [4] [µM] | survival of TH-MYCN transgenic mice [5] | apoptosis induction in cells with high vs low MYCN [6] | effect on MYCN protein levels [7] | antitumor activity in prostate cancer xenografts [8] | anti-tumor effects in NB xenografts [9] | lipid droplet accumulation [10] | antitumor activity in Burkitt's lymphoma xenograft [11] | morphological neuronal differentiation [12] | solubility in aqueous buffers [13] | apoptosis (cell death) induction relative to 10058-F4 [14] | apoptosis (cell death) induction relative to 10058-F4 [15]
1 | CCc1ccc(C=C2SC(=O)NC2=O)cc1 [C-m/z 232] | not able to effect the MYCN/MAX interaction | did not affect MYCN/MAX dimer formation | 82.3 | 87.1 |  |  |  |  |  |  |  |  |  |  |  | 
2 | CCc1ccc(C=C2SC(=S)NC2=O)cc1 [Compound 10058-F4, [Z,E]-5-[4-ethylbenzylidine]-2-thioxothiazolidin-4-one] |  | reduced the MYCN/MAX interaction |  | 41.9 | 41.1 | increased the survival | cells with low MYCN-levels were less sensitive | able to efficiently decrease the MYCN protein levels | no significant antitumor activity | showed anti-tumor effects |  |  |  |  |  | 
3 | O=[N+]([O-])c1ccc(Nc2ccccc2-c2ccccc2)c2nonc12 [Compound 10074-G5] |  | reduced the MYCN/MAX interaction |  | 19.2 | 22.5 |  | MYCN dependent induction of apoptosis | decreased the MYCN protein levels at lower concentrations than 10058-F4 |  |  | smaller but more numerous lipid droplets | failed to show any antitumor activity | evident neurite outgrowth | especially poor solubility in aqueous buffers | more potent than 10058-F4 in inducing cell death | more potent than 10058-F4 in inducing cell death
